Data taken from ChEMBL document CHEMBL1201861, “Genomics of Drug Sensitity in Cancer screening data, Wellcome Trust Sanger Institute”.

Legend:
Test in all cases: cells
KM12 = format: functional, cell-based, Homo sapiens; conditions: Homo sapiens, KM12;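 note: KM12 cell growth inhibition, read out with a cell viability assay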
Description: SANGER: Inhibition of human KM12 cell growth in a cell viability assay.

MFM-223 = format: functional, cell-based, Homo sapiens; conditions: Homo sapiens, MFM-223
Description: SANGER: Inhibition of human MFM-223 cell growth in a cell viability assay.

REH = format: functional, cell-based, Homo sapiens; conditions: Homo sapiens, REH;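 note: growth inhibition of REH cells determined with a cell viability read-out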
Description: SANGER: Inhibition of human REH cell growth in a cell viability assay.

MFH-ino = format: functional, cell-based, Homo sapiens; conditions: Homo sapiens, MFH-ino;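 note: growth inhibition of human MFH-ino cells, read out by a cell viability assay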
Description: SANGER: Inhibition of human MFH-ino cell growth in a cell viability assay.

MHH-NB-11 = format: functional, cell-based, Homo sapiens; conditions: Homo sapiens, MHH-NB-11;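 note: growth inhibition of human MHH-NB-11 cells, read out by a cell viability assay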
Description: SANGER: Inhibition of human MHH-NB-11 cell growth in a cell viability assay.

MHH-PREB-1 = format: functional, cell-based, Homo sapiens; conditions: Homo sapiens, MHH-PREB-1;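 note: cell viability assay measuring inhibition of proliferation of human MHH-PREB-1 cells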
Description: SANGER: Inhibition of human MHH-PREB-1 cell growth in a cell viability assay.

SIMA = format: functional, cell-based, Homo sapiens; conditions: Homo sapiens, SIMA;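 note: growth inhibition of SIMA cells, measured with a cell viability readout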
Description: SANGER: Inhibition of human SIMA cell growth in a cell viability assay.

PF-382 = format: functional, cell-based, Homo sapiens; conditions: Homo sapiens, PF-382
Description: SANGER: Inhibition of human PF-382 cell growth in a cell viability assay.

DMS-153 = format: functional, cell-based, Homo sapiens; conditions: Homo sapiens, DMS-153
Description: SANGER: Inhibition of human DMS-153 cell growth in a cell viability assay.

CTB-1 = format: functional, cell-based, Homo sapiens; conditions: Homo sapiens, CTB-1
Description: SANGER: Inhibition of human CTB-1 cell growth in a cell viability assay.

DJM-1 = format: functional, cell-based, Homo sapiens; conditions: Homo sapiens, DJM-1;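 note: growth inhibition of human DJM-1 cells, read out by a cell viability assay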
Description: SANGER: Inhibition of human DJM-1 cell growth in a cell viability assay.

MDA-MB-134-VI = format: functional, cell-based, Homo sapiens; conditions: Homo sapiens, MDA-MB-134-VI
Description: SANGER: Inhibition of human MDA-MB-134-VI cell growth in a cell viability assay.

MPP-89 = format: functional, cell-based, Homo sapiens; conditions: Homo sapiens, MPP-89;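 note: growth inhibition of human MPP-89 cells, read out with a cell viability assay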
Description: SANGER: Inhibition of human MPP-89 cell growth in a cell viability assay.

NCI-H1522 = format: functional, cell-based, Homo sapiens; conditions: Homo sapiens, NCI-H1522;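 note: growth inhibition of NCI-H1522 cells, read out with a cell viability assay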
Description: SANGER: Inhibition of human NCI-H1522 cell growth in a cell viability assay.

EVSA-T = format: functional, cell-based, Homo sapiens; conditions: Homo sapiens, EVSA-T;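 note: growth inhibition of EVSA-T cells, read out with a cell viability assay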
Description: SANGER: Inhibition of human EVSA-T cell growth in a cell viability assay.

SK-MEL-2 = format: functional, cell-based, Homo sapiens; conditions: Homo sapiens, SK-MEL-2;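 note: growth inhibition of human SK-MEL-2 cells measured with a cell viability assay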
Description: SANGER: Inhibition of human SK-MEL-2 cell growth in a cell viability assay.

IMR-5 = format: functional, cell-based, Homo sapiens; conditions: Homo sapiens, IMR-5;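 note: growth inhibition of human IMR-5 cells, read out with a cell viability assay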
Description: SANGER: Inhibition of human IMR-5 cell growth in a cell viability assay.

D-263MG = format: functional, cell-based, Homo sapiens; conditions: Homo sapiens, D-263MG
Description: SANGER: Inhibition of human D-263MG cell growth in a cell viability assay.

U-87 MG = format: functional, cell-based, Homo sapiens, U-87MG ATCC; conditions: Homo sapiens, U-87 MG;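 note: growth inhibition of the cells measured with a viability assay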
Description: SANGER: Inhibition of human U-87-MG cell growth in a cell viability assay.

SJSA-1 = format: functional, cell-based, Homo sapiens; conditions: Homo sapiens, SJSA-1;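 note: growth inhibition of human SJSA-1 cells, read out through a cell viability measurement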
Description: SANGER: Inhibition of human SJSA-1 cell growth in a cell viability assay.

U-698-M = format: functional, cell-based, Homo sapiens; conditions: Homo sapiens, U-698-M
Description: SANGER: Inhibition of human U-698-M cell growth in a cell viability assay.

EW-18 = format: functional, cell-based, Homo sapiens; conditions: Homo sapiens, EW-18;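 note: growth inhibition of EW-18 cells, read out by a cell viability assay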
Description: SANGER: Inhibition of human EW-18 cell growth in a cell viability assay.

KMS-12-PE = format: functional, cell-based, Homo sapiens; conditions: Homo sapiens, KMS-12-PE;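 note: growth inhibition of human KMS-12-PE cells, measured with a cell viability assay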
Description: SANGER: Inhibition of human KMS-12-PE cell growth in a cell viability assay.

SF-126 = format: functional, cell-based, Homo sapiens; conditions: Homo sapiens, SF-126;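 note: growth inhibition of human SF126 cells, read out with a cell viability assay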
Description: SANGER: Inhibition of human SF126 cell growth in a cell viability assay.

ETK-1 = format: functional, cell-based, Homo sapiens; conditions: Homo sapiens, ETK-1;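 note: growth inhibition of human ETK-1 cells, read out with a cell viability assay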
Description: SANGER: Inhibition of human ETK-1 cell growth in a cell viability assay.

MC-CAR = format: functional, cell-based, Homo sapiens; conditions: Homo sapiens, MC-CAR;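 note: growth inhibition of the human MC-CAR cell line, read out by a cell viability assay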
Description: SANGER: Inhibition of human MC-CAR cell growth in a cell viability assay.

RS4-11 = format: functional, cell-based, Homo sapiens; conditions: Homo sapiens, RS4-11;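 note: growth inhibition of RS4-11 cells, read out by a cell viability assay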
Description: SANGER: Inhibition of human RS4-11 cell growth in a cell viability assay.

SJRH30 = format: functional, cell-based, Homo sapiens; conditions: Homo sapiens, SJRH30;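 note: growth inhibition of human SJRH30 cells, read out with a cell viability assay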
Description: SANGER: Inhibition of human SJRH30 cell growth in a cell viability assay.

SW1783 = format: functional, cell-based, Homo sapiens; conditions: Homo sapiens, SW1783;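 note: cell growth inhibition measured with a viability assay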
Description: SANGER: Inhibition of human SW1783 cell growth in a cell viability assay.

CAL-85-1 = format: functional, cell-based, Homo sapiens; conditions: Homo sapiens, CAL-85-1;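 note: growth inhibition of human CAL-85-1 cells, read out with a cell viability assay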
Description: SANGER: Inhibition of human CAL-85-1 cell growth in a cell viability assay.

U-251 = format: functional, cell-based, Homo sapiens; conditions: Homo sapiens, U-251;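 note: growth inhibition of human U-251 cells, read out through a cell viability assay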
Description: SANGER: Inhibition of human U251 cell growth in a cell viability assay.

RCM-1 = format: functional, cell-based, Homo sapiens; conditions: Homo sapiens, RCM-1;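 note: growth inhibition of the RCM-1 line, determined with a cell viability readout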
Description: SANGER: Inhibition of human RCM-1 cell growth in a cell viability assay.

CAL-12T = format: functional, cell-based, Homo sapiens; conditions: Homo sapiens, CAL-12T;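 note: growth inhibition of human CAL-12T cells, read out with a cell viability assay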
Description: SANGER: Inhibition of human CAL-12T cell growth in a cell viability assay.

Ca-Ski = format: functional, cell-based, Homo sapiens; conditions: Homo sapiens, Ca-Ski;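 note: cell viability assay measuring inhibition of Ca-Ski cell growth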
Description: SANGER: Inhibition of human Ca-Ski cell growth in a cell viability assay.

Panc1005 = format: functional, cell-based, Homo sapiens; conditions: Homo sapiens, Panc1005;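 note: growth inhibition of human PANC-10-05 cells, measured by a cell viability assay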
Description: SANGER: Inhibition of human PANC-10-05 cell growth in a cell viability assay.

NCI-H2087 = format: functional, cell-based, Homo sapiens; conditions: Homo sapiens, NCI-H2087;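 note: growth inhibition determined with a cell viability readout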
Description: SANGER: Inhibition of human NCI-H2087 cell growth in a cell viability assay.

HCC1569 = format: functional, cell-based, Homo sapiens; conditions: Homo sapiens, HCC1569;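 note: growth inhibition of human HCC1569 cells, read out with a cell viability assay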
Description: SANGER: Inhibition of human HCC1569 cell growth in a cell viability assay.

SK-MEL3 = format: functional, cell-based, Homo sapiens, SK-MEL-3; conditions: Homo sapiens, SK-MEL3;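 note: growth inhibition of human SK-MEL-3 cells, read out with a cell viability assay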
Description: SANGER: Inhibition of human SK-MEL-3 cell growth in a cell viability assay.

A-431 = format: functional, cell-based, Homo sapiens; conditions: Homo sapiens, A-431;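 note: growth inhibition of A-431 cells, determined with a cell viability read-out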
Description: SANGER: Inhibition of human A431 cell growth in a cell viability assay.

PA-1 = format: functional, cell-based, Homo sapiens; conditions: Homo sapiens, PA-1;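 note: IC50 for suppression of PA-1 cell proliferation, determined with a cell viability read-out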
Description: SANGER: Inhibition of human PA-1 cell growth in a cell viability assay.

RT-112 = format: functional, cell-based, Homo sapiens; conditions: Homo sapiens, RT-112
Description: SANGER: Inhibition of human RT-112 cell growth in a cell viability assay.

NY = format: functional, cell-based, Homo sapiens; conditions: Homo sapiens, NY
Description: SANGER: Inhibition of human NY cell growth in a cell viability assay.

A2058 = format: functional, cell-based, Homo sapiens; conditions: Homo sapiens, A2058;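 note: reduction of A2058 cell growth, read out with a viability assay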
Description: SANGER: Inhibition of human A2058 cell growth in a cell viability assay.

BCPAP = format: functional, cell-based, Homo sapiens; conditions: Homo sapiens, BCPAP;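 note: growth inhibition of BCPAP cells, read out in a cell viability assay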
Description: SANGER: Inhibition of human BCPAP cell growth in a cell viability assay.

COR-L23 = format: functional, cell-based, Homo sapiens; conditions: Homo sapiens, COR-L23;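 note: cell viability assay measuring how strongly compounds suppress growth of COR-L23 cells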
Description: SANGER: Inhibition of human COR-L23 cell growth in a cell viability assay.

CAMA-1 = format: functional, cell-based, Homo sapiens; conditions: Homo sapiens, CAMA-1;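 note: growth inhibition of CAMA-1 cells, read out with a cell viability assay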
Description: SANGER: Inhibition of human CAMA-1 cell growth in a cell viability assay.

CHP-212 = format: functional, cell-based, Homo sapiens; conditions: Homo sapiens, CHP-212
Description: SANGER: Inhibition of human CHP-212 cell growth in a cell viability assay.

COc1cc(-c2nn([C@H]3CC[C@H](N4CCN(C(C)=O)CC4)CC3)c3ncnc(N)c23)ccc1NC(=O)c1cc2ccccc2n1C
IC50 (KM12): > 5120 nM | IC50 (MFM-223): > 5120 nM | IC50 (REH): > 5120 nM | IC50 (MFH-ino): 1160 nM | IC50 (MHH-NB-11): > 5120 nM | IC50 (MHH-PREB-1): 4850 nM | IC50 (SIMA): > 5120 nM | IC50 (PF-382): > 5120 nM | IC50 (DMS-153): > 5120 nM | IC50 (CTB-1): > 5120 nM | IC50 (DJM-1): > 5120 nM | IC50 (MDA-MB-134-VI): > 5120 nM | IC50 (MPP-89): > 5120 nM | IC50 (NCI-H1522): > 5120 nM | IC50 (EVSA-T): > 5120 nM | IC50 (SK-MEL-2): > 5120 nM | IC50 (IMR-5): > 5120 nM | IC50 (D-263MG): > 5120 nM | IC50 (U-87 MG): > 5120 nM | IC50 (SJSA-1): > 5120 nM | IC50 (U-698-M): > 5120 nM | IC50 (EW-18): > 5120 nM | IC50 (KMS-12-PE): > 5120 nM | IC50 (SF-126): > 5120 nM | IC50 (ETK-1): 349 nM | IC50 (MC-CAR): > 5120 nM | IC50 (RS4-11): > 5120 nM

OCCCNc1cc(-c2ccnc(Nc3cccc(Cl)c3)n2)ccn1
IC50 (KM12): 124 nM | IC50 (MFM-223): > 256 nM | IC50 (REH): > 256 nM | IC50 (MFH-ino): 80.7 nM | IC50 (MHH-NB-11): 217 nM | IC50 (MHH-PREB-1): 58.4 nM | IC50 (SIMA): > 256 nM | IC50 (PF-382): 104 nM | IC50 (DMS-153): > 256 nM | IC50 (CTB-1): 153 nM | IC50 (DJM-1): > 256 nM | IC50 (MDA-MB-134-VI): > 256 nM | IC50 (MPP-89): 90.4 nM | IC50 (NCI-H1522): > 256 nM | IC50 (EVSA-T): 135 nM | IC50 (SK-MEL-2): > 256 nM | IC50 (IMR-5): 124 nM | IC50 (D-263MG): > 256 nM | IC50 (U-87 MG): > 256 nM | IC50 (SJSA-1): 60.7 nM | IC50 (U-698-M): > 256 nM | IC50 (EW-18): > 256 nM | IC50 (KMS-12-PE): > 256 nM | IC50 (SF-126): 134 nM | IC50 (ETK-1): 13.8 nM | IC50 (MC-CAR): 121 nM | IC50 (RS4-11): 69.6 nM

Cc1cn(-c2cc(NC(=O)c3ccc(C)c(Nc4nccc(-c5cccnc5)n4)c3)cc(C(F)(F)F)c2)cn1 [NILOTINIB]
IC50 (KM12): > 2000 nM | IC50 (SJRH30): > 2000 nM | IC50 (SW1783): > 2000 nM | IC50 (CAL-85-1): > 2000 nM | IC50 (MFM-223): > 2000 nM | IC50 (MFH-ino): > 2000 nM | IC50 (U-251): > 2000 nM | IC50 (RCM-1): > 2000 nM | IC50 (MHH-NB-11): > 2000 nM | IC50 (CAL-12T): > 2000 nM | IC50 (MHH-PREB-1): > 2000 nM | IC50 (Ca-Ski): > 2000 nM | IC50 (Panc1005): > 2000 nM | IC50 (NCI-H2087): > 2000 nM | IC50 (HCC1569): > 2000 nM | IC50 (SK-MEL3): > 2000 nM | IC50 (A-431): > 2000 nM | IC50 (CTB-1): > 2000 nM | IC50 (DJM-1): > 2000 nM | IC50 (PA-1): > 2000 nM | IC50 (MPP-89): > 2000 nM | IC50 (SK-MEL-2): > 2000 nM | IC50 (RT-112): > 2000 nM | IC50 (NY): > 2000 nM | IC50 (A2058): > 2000 nM | IC50 (BCPAP): > 2000 nM | IC50 (D-263MG): > 2000 nM | IC50 (U-87 MG): > 2000 nM | IC50 (SJSA-1): > 2000 nM | IC50 (EW-18): > 2000 nM | IC50 (COR-L23): > 2000 nM | IC50 (SF-126): > 2000 nM | IC50 (ETK-1): > 2000 nM | IC50 (CAMA-1): > 2000 nM | IC50 (RS4-11): > 2000 nM | IC50 (CHP-212): > 2000 nM
